Here are results for 36 compounds from US20050227980A1, “Aralkyl and aralkylidene heterocyclic lactam and imides” (Pfizer Inc., priority 2003, published 2005).

The structures appear in SMILES notation. Where a name gives a salt, the structure may show the parent alone.

The melting point is the temperature of the solid-liquid transition. In the case of `CN1CCN(c2cccc(F)c2C=C2OCCN(c3ccc(C(C)(C)C)cc3)C2=O)CC1.Cl`, the melting point lay within 187.5 to 192.6 °C.

For `CN1CCN(c2cccc(C(F)(F)F)c2C=C2OCCN(c3ccc(C(C)(C)C)cc3)C2=O)CC1.Cl`, the melting point is 205 °C (dec.).

For `CN1CCN(c2cccc(Cl)c2C=C2OCCN(c3ccc(C(C)(C)C)cc3)C2=O)CC1.Cl`, the melting point fell in the range of 139 to 142 °C.

In turn, `CC(C)c1ccc(N2CCOC(Cc3ccccc3N3CCN(C)CC3)C2=O)cc1.Cl` (racemic) came in with a melting point of 185.7 to 188.1 °C.

Regarding `CN1CCN(c2cccc(Cl)c2CC2OCCN(c3ccc(C(C)(C)C)cc3)C2=O)CC1.Cl` (racemic), the melting point was 215 °C (dec.).

`CN1CCN(c2ccccc2CC2OCCN(c3ccc(-c4ccccc4)cc3)C2=O)CC1.Cl` (racemic) registered a melting point of 219.4 to 222.2 °C.

Turning to `CC1CN(c2ccccc2CC2OCCN(c3ccc(C(C)(C)C)cc3)C2=O)CC(C)N1C.Cl` (racemic), the melting point is 135 °C (dec.).

In turn, `CN1CCN(c2ccccc2CC2OCCN(Cc3ccc(C(C)(C)C)cc3)C2=O)CC1.Cl` (racemic) returned a melting point of 215 to 216 °C.

For the compound `CN1CCN(c2ccccc2CC2OCCN(c3ccc(C(C)(C)C)cc3)C2=O)CC1` (racemic) (as salt: tartrate) [Example 23, (±)-4-(4-tert-Butyl-phenyl)-2-[2-(4-methylpiperazin-1-yl)-benzyl]-morpholin-3-one], the melting point was 179 to 180 °C (dec.).

Consider `CN1CCN(c2cc(Cl)ccc2CC2OCCN(c3ccc(C(C)(C)C)cc3)C2=O)CC1` (racemic) [Example 27 (±), (±)-4-(4-tert-Butyl-phenyl)-2-[4-chloro-2-(4-methylpiperazin-1-yl)-benzyl]-morpholin-3-one], for which the melting point was in the range of 161.9 to 163.5 °C.

`CN1CCN(c2cccc(F)c2CC2OCCN(c3ccc(C(C)(C)C)cc3)C2=O)CC1.Cl` (racemic) [Example 28 (±)] displayed a melting point of 190.5 to 192.1 °C.

As for `CN1CCN(c2cc(F)ccc2CC2OCCN(c3ccc(C(C)(C)C)cc3)C2=O)CC1.Cl` (racemic) [Example 29 (±)], the melting point was 155.9 to 159.9 °C.

`CN1CCN(c2c(F)cccc2CC2OCCN(c3ccc(C(C)(C)C)cc3)C2=O)CC1.Cl` (racemic) [Example 30 (±)]: the melting point lay in the range of 107 to 108.7 °C.

For `CN1CCN(c2ccc(C(F)(F)F)cc2CC2OCCN(c3ccc(C(C)(C)C)cc3)C2=O)CC1` (racemic) [Example 32 (±), (±)-4-(4-tert-Butyl-phenyl)-2-[2-(4-methylpiperazin-1-yl)-5-trifluoromethyl-benzyl]-morpholin-3-one], the melting point was in the range of 145.1 to 146.2 °C.

On to `CN1CCN(c2ccccc2CC2OCCN(c3ccc(C(C)(C)C)cc3)C2=O)CC1.Cl` (single isomer, unassigned) [Example 24 (+)], for which the melting point lay in the range of 165.8 to 171.2 °C.

`CN1CCN(c2ccccc2CC2OCCN(c3ccc(C(C)(C)C)cc3)C2=O)CC1.Cl` (single isomer, unassigned) [Example 24 (−)] displayed a melting point of 187.1 to 191.2 °C.

Turning to `Cc1ccc(N2CCN(C)CC2)c(CC2OCCN(c3ccc(C(C)(C)C)cc3)C2=O)c1` (single isomer, unassigned; (+)) [Example 31 (+), (+)-4-(4-tert-Butyl-phenyl)-2-[5-methyl-2-(4-methylpiperazin-1-yl)-benzyl]-morpholin-3-one], the melting point lay in the range of 92 to 93 °C.

With `Cc1ccc(N2CCN(C)CC2)c(CC2OCCN(c3ccc(C(C)(C)C)cc3)C2=O)c1` (single isomer, unassigned; (-)) [Example 31 (−), (−)-4-(4-tert-Butyl-phenyl)-2-[5-methyl-2-(4-methylpiperazin-1-yl)-benzyl]-morpholin-3-one], the melting point fell in the range of 86 to 88 °C.

As to `CC(C)c1ccc(N2CCOC(=Cc3ccccc3N3CCN(C)CC3)C2=O)cc1` [Example 3, 2-[2-(4-Methylpiperazin-1-yl)-benzylidene]-4-(4-isopropylphenyl)-morpholin-3-one], the melting point fell in the range of 155 to 156 °C.

Consider `CN1CCN(c2ccccc2C=C2OCCN(c3ccc(C(C)(C)C)cc3)C2=O)CC1` [Example 5, 2-[2-(4-Methylpiperazin-1-yl)-benzylidene]-4-(4-tert-butylphenyl)-morpholin-3-one], for which the melting point is 169 to 171 °C.

In turn, `CC1CN(c2ccccc2C=C2OCCN(c3ccc(C(C)(C)C)cc3)C2=O)CC(C)N1C` (stereo not drawn) [Example 6, 2-[2-(3,4,5-Trimethylpiperazin-1-yl)-benzylidene]-4-(4-tert-butylphenyl)-morpholin-3-one] showed a melting point of 167 to 168 °C.

As for `CN1CCN(c2cc(Cl)ccc2C=C2OCCN(c3ccc(C(C)(C)C)cc3)C2=O)CC1` [Example 10, 4-(4-tert-Butyl-phenyl)-2-[4-chloro-2-(4-methylpiperazin-1-yl)-benzylidene]-morpholin-3-one], the melting point is 209 to 210.8 °C.

For `CN1CCN(c2c(F)cccc2C=C2OCCN(c3ccc(C(C)(C)C)cc3)C2=O)CC1` [Example 12, 4-(4-tert-Butyl-phenyl)-2-[3-fluoro-2-(4-methylpiperazin-1-yl)-benzylidene]-morpholin-3-one], the melting point fell in the range of 184.3 to 187.1 °C.

The compound `CN1CCN(c2cc(C(F)(F)F)ccc2C=C2OCCN(c3ccc(C(C)(C)C)cc3)C2=O)CC1` [Example 14, 4-(4-tert-Butyl-phenyl)-2-[2-(4-methylpiperazin-1-yl)-4-trifluoromethyl-benzylidene]-morpholin-3-one] had a melting point of 186.3 to 191.9 °C.

As to `Cc1ccc(N2CCN(C)CC2)c(C=C2OCCN(c3ccc(C(C)(C)C)cc3)C2=O)c1` [Example 15, 4-(4-tert-Butyl-phenyl)-2-[5-methyl-2-(4-methylpiperazin-1-yl)-benzylidene]-morpholin-3-one], the melting point is 209.2 to 211 °C.

Compound `CN1CCN(c2ccccc2C=C2OCCN(Cc3ccc(C(C)(C)C)cc3)C2=O)CC1` [Example 20, 4-(4-tert-Butyl-benzyl)-2-[2-(4-methylpiperazin-1-yl)-benzylidene]-morpholin-3-one] showed a melting point of 68 to 70 °C.

With `CN1CCN(c2cc(Cl)ccc2CC2OCCN(c3ccc(C(C)(C)C)cc3)C2=O)CC1.Cl` (stereo not drawn) [Example 27 (+)], the melting point lay in the range of 159.5 to 161.7 °C.

In turn, `CN1CCN(c2cc(Cl)ccc2CC2OCCN(c3ccc(C(C)(C)C)cc3)C2=O)CC1.Cl` (stereo not drawn) [Example 27 (−)] registered a melting point of 159 to 161.8 °C.

`CN1CCN(c2cccc(F)c2CC2OCCN(c3ccc(C(C)(C)C)cc3)C2=O)CC1.Cl` (stereo not drawn) [Example 28 (+)] showed a melting point of 176.9 to 179.3 °C.

Consider `CN1CCN(c2cccc(F)c2CC2OCCN(c3ccc(C(C)(C)C)cc3)C2=O)CC1.Cl` (stereo not drawn) [Example 28 (−)], for which the melting point was 178 to 181.4 °C.

For `CN1CCN(c2cc(F)ccc2CC2OCCN(c3ccc(C(C)(C)C)cc3)C2=O)CC1.Cl` (stereo not drawn) [Example 29 (+)], the melting point lay within 157.4 to 159.6 °C.

In turn, `CN1CCN(c2cc(F)ccc2CC2OCCN(c3ccc(C(C)(C)C)cc3)C2=O)CC1.Cl` (stereo not drawn) [Example 29 (−)] showed a melting point of 156.2 to 158.1 °C.

For the compound `CN1CCN(c2c(F)cccc2CC2OCCN(c3ccc(C(C)(C)C)cc3)C2=O)CC1.Cl` (stereo not drawn) [Example 30 (+)], the melting point is 104.7 °C (dec.).

For `CN1CCN(c2c(F)cccc2CC2OCCN(c3ccc(C(C)(C)C)cc3)C2=O)CC1.Cl` (stereo not drawn) [Example 30 (−)], the melting point is 128.5 to 129.9 °C.

Compound `CN1CCN(c2ccc(C(F)(F)F)cc2CC2OCCN(c3ccc(C(C)(C)C)cc3)C2=O)CC1.Cl` (stereo not drawn) [Example 32 (+)] registered a melting point of 136 to 138 °C.

For the compound `CN1CCN(c2ccc(C(F)(F)F)cc2CC2OCCN(c3ccc(C(C)(C)C)cc3)C2=O)CC1.Cl` (stereo not drawn) [Example 32 (−)], the melting point lay within 128 to 130 °C.
